Drawing on patent US20240269301A1, “METHOD FOR INITIATING POLYMERIZATION OF AMINO ACID N-CARBOXYANHYDRIDES IN AQUEOUS PHASE” (PEKING UNIVERSITY, priority 2021, published 2024), this text covers solubility limit for 1 molecule.

A short description of the series: Solubility of doxorubicin in PBS (absorbance 495 nm). Type of series: physicochemical. The following applies: FIG. 38. The method, then:
Determination of doxorubicin content: 600, 300, 150, 75, 37.5, 18.75, 9.375, and 0 μg/mL DOX was formulated as a standard curve. 5 mg of doxorubicin hydrochloride was weighed and added to 1 mL of PBS. 10 mg of DOX-PLP was weighed and added to 100 μL of PBS. After dissolving by vortexing, the mixture was centrifuged at 21,000 for 10 min, and the supernatant was diluted to an appropriate multiple. The absorbance value was measured at 495 nm, and the DOX content was calculated based on the absorbance value of the standard curve.

Counter-ions that a name gives are not always drawn.

For the molecule `COc1cccc2c1C(=O)c1c(O)c3c(c(O)c1C2=O)C[C@@](O)(C(=O)CO)C[C@@H]3O[C@H]1C[C@H](N)[C@H](O)[C@H](C)O1` [doxorubicin hydrochloride], the solubility limit was 573±22 μg/mL DOX.
